In article PMC5601486, “Identification of 4-phenylquinolin-2(1H)-one as a specific allosteric inhibitor of Akt” (Scientific Reports, 2017):

Key:
FoxO1 phosphorylation = test: Western blot of Akt downstream signaling; assay type: cell-based, Mouse; details: Neuro 2A cells, dose-dependent
Description: (§1) Neuro 2A cells were seeded in 12-well plates in DMEM containing 5% FBS for 24 hr.
(§2) After overnight serum starvation (in 0% FBS DMEM), cells were incubated for 30 min at 37 °C with G7 or LY294002 or Torin 1 (Sigma Aldrich) at various concentrations, or DMSO control. IGF-1 was added to each well at a final concentration of 100 ng/mL. After 30-min incubation cells were washed with cold PBS and lysed with 50 µL lysis buffer containing 1% Triton X-100 and protease/phosphatase inhibitors (Cell Signaling Technology) or RIPA buffer (Santa Cruz Biotech). Samples were electrophoresed in 4–12% Bis-Tris gels (Life Technologies) at 150 V using MOPS SDS running buffer. Proteins were transferred electrophoretically to a PVDF or nitrocellulose membrane. For detection of cleaved […]
(§3) caspase 3 a Trans-Blot Turbo Transfer System (Bio-Rad, 25 V for 25 min) with PVDF membrane were used. […]
(§4) anti- GAPDH (14C10) antibody (#2118) (all antibodies were from Cell Signaling Technology unless indicated, 1:1000 dilution was used) at 4°C overnight, washed three times with TBS-T, then incubated with peroxidase-conjugated secondary antibody (Sigma-Aldrich) for 1 hr at room temperature. […] Band intensity was quantitated using Kodak 1D imaging analysis software. […]

GSK-3β phosphorylation = test: Western blot of Akt downstream signaling; assay type: cell-based, Mouse; details: Neuro 2A cells, dose-dependent
Description: as §1, §2, §3, §4

EIF2AK1 = test: KINOMEscan; details: 50000 nM
Description: KINOMEscan™ selectivity screen
(§5) The assay was perfor med at DiscoveRx Corporation according the methods published previously5. Briefly, Kinase-tagged T7 phage strains were grown in parallel in an E. coli host derived from the BL21 strain. E. coli were grown to log-phase and infected with T7 phage from a frozen stock and incubated with shaking at 32°C until lysis (90-150 minutes). The kinases were produced in HEK-293 cells and subsequently tagged with DNA for qPCR detection. Streptavidin-coated magnetic beads were treated with biotinylated small molecule ligands to generate affinity resins for kinase
(§6) inhibitor or DMSO control was performed in polypropylene 384-well plates for 1 hr at room temperature. After wash with PBS buffer containing 0.05% Tween 20, the beads were incubated in elution buffer (PBS containing 0.05 % Tween 20 and 0.5 μM non-biotinylated affinity ligand) for 30 minutes at room temperature. The kinase concentration in the eluates was measured by qPCR.

NIH/3T3 cells = test: MTS cell proliferation/viability assay; assay type: cell-based; details: no longer proliferating, in comparison to LY or Torin 1
Description: Neuro 2A cells or NIH/3T3 cells (ATCC) were seeded at various confluency in a 96-well plate in 100 µL DMEM containing 5% FBS or 10% FBS with 1% penicillin streptomucin, respectively, at 37 °C in a 5% CO2 and 95% humidity incubator for 18 hr. To each well 1 µL inhibitor with various concentrations or DMSO was added. The final concentrations of the tested inhibitors were 0, 5, 10, 20, 40 and 80 µM for G7 and LY, and 0, 5, 10, 20, 40 and 80 nM for Torin1, based on their respective IC50 values (~µM for G7 and LY and ~ nM for Torin 1). After 24 hr, 20 µL of CellTiter 96® AQueous One Solution Reagent (Promega) were added. The plate was placed in the incubator for 2 h and absorbance at 490 nm was measured with a Synergy HT Microplate Reader (Bio-Tek).

STK33 = test: KINOMEscan; details: 50000 nM
Description: KINOMEscan™ selectivity screen
as §5, §6

SgK110 = test: KINOMEscan; details: 50000 nM
Description: KINOMEscan™ selectivity screen
as §5, §6

TYRO3 = test: KINOMEscan; details: 50000 nM
Description: KINOMEscan™ selectivity screen
as §5, §6

DCAMKL1 = test: KINOMEscan; details: 50000 nM
Description: KINOMEscan™ selectivity screen
as §5, §6

DCAMKL2 = test: KINOMEscan; details: 50000 nM
Description: KINOMEscan™ selectivity screen
as §5, §6

NEK1 = test: KINOMEscan; details: 50000 nM
Description: (§7) Briefly, Kinase-tagged T7 phage strains were grown in parallel in an E. coli host derived from the BL21 strain. E. coli were grown to log-phase and infected with T7 phage from a frozen stock and incubated with shaking at 32°C until lysis (90-150 minutes). The kinases were produced in HEK-293 cells and subsequently tagged with DNA for qPCR detection. Streptavidin-coated magnetic beads were treated with biotinylated small molecule ligands to generate affinity resins for kinase
as §6

PIK3CA(H1047L) = test: KINOMEscan; details: 50000 nM
Description: KINOMEscan™ selectivity screen
as §5, §6

MARK2 = test: KINOMEscan; details: 50000 nM
Description: KINOMEscan™ selectivity screen
as §7, §6

ABL1-phosphorylated = test: KINOMEscan; details: 50000 nM
Description: KINOMEscan™ selectivity screen
as §5, §6

PLK3 = test: KINOMEscan; details: 50000 nM
Description: KINOMEscan™ selectivity screen
as §7, §6

BRSK2 = test: KINOMEscan; details: 50000 nM
Description: KINOMEscan™ selectivity screen
as §5, §6

MLK1 = test: KINOMEscan; details: 50000 nM
Description: KINOMEscan™ selectivity screen
as §5, §6

YSK1 = test: KINOMEscan; details: 50000 nM
Description: KINOMEscan™ selectivity screen
as §5, §6

MST1 = test: KINOMEscan; details: 50000 nM
Description: KINOMEscan™ selectivity screen
as §5, §6

HIPK2 = test: KINOMEscan; details: 50000 nM
Description: KINOMEscan™ selectivity screen
as §5, §6

PIM1 = test: KINOMEscan; details: 50000 nM
Description: KINOMEscan™ selectivity screen
as §5, §6

GRK4 = test: KINOMEscan; details: 50000 nM
Description: KINOMEscan™ selectivity screen
The assay was perfor med at DiscoveRx Corporation according the methods published previously5. […] The kinases were produced in HEK-293 cells and subsequently tagged with DNA for qPCR detection. Streptavidin-coated magnetic beads were treated with biotinylated small molecule ligands to generate affinity resins for kinase
as §6

PKN2 = test: KINOMEscan; details: 50000 nM
Description: KINOMEscan™ selectivity screen
as §5, §6

EGFR(E746-A750del) = test: KINOMEscan; details: 50000 nM
Description: KINOMEscan™ selectivity screen
as §7, §6

SRPK3 = test: KINOMEscan; details: 50000 nM
Description: KINOMEscan™ selectivity screen
as §5, §6

STK39 = test: KINOMEscan; details: 50000 nM
Description: KINOMEscan™ selectivity screen
as §5, §6

KIT(V559D,V654A) = test: KINOMEscan; details: 50000 nM
Description: KINOMEscan™ selectivity screen
as §5, §6

ERK4 = test: KINOMEscan; details: 50000 nM
Description: KINOMEscan™ selectivity screen
as §5, §6

LATS2 = test: KINOMEscan; details: 50000 nM
Description: KINOMEscan™ selectivity screen
as §7, §6

TSSK1B = test: KINOMEscan; details: 50000 nM
Description: KINOMEscan™ selectivity screen
Briefly, Kinase-tagged T7 phage strains were grown in parallel in an E. coli host derived from the BL21 strain. E. coli were grown to log-phase and infected with T7 phage from a frozen stock and incubated with shaking at 32°C until lysis (90-150 minutes). The kinases were produced in HEK-293 cells and subsequently tagged with DNA for qPCR detection.
After wash with PBS buffer containing 0.05% Tween 20, the beads were incubated in elution buffer (PBS containing 0.05 % Tween 20 and 0.5 μM non-biotinylated affinity ligand) for 30 minutes at room temperature. The kinase concentration in the eluates was measured by qPCR.

NLK = test: KINOMEscan; details: 50000 nM
Description: KINOMEscan™ selectivity screen
as §5, §6

[1] = test system: RSK4(Kin.Dom.2-C-terminal); test: KINOMEscan; details: 50000 nM
Description: KINOMEscan™ selectivity screen
as §5, §6

TAOK3 = test: KINOMEscan; details: 50000 nM
Description: KINOMEscan™ selectivity screen
as §5, §6

With `Oc1cc(-c2ccccc2)c2ccccc2n1` [G7, 4-phenylquinolin-2(1H)-one] the “phosphorylation of FoxO1” value (FoxO1 phosphorylation) was “decreased”, the “phosphorylation of GSK-3β” value (GSK-3β phosphorylation) was “decreased” and the “Percent Control” value (EIF2AK1) was 100%. The “inhibition of confluent NIH/3T3 cells” value (NIH/3T3 cells) was “considerably less inhibition”, the “Percent Control” value (STK33) was 100% and the “Percent Control” value (SgK110) was 100%. The “Percent Control” value (TYRO3) was 93%, the “Percent Control” value (DCAMKL1) was 87% and the “Percent Control” value (DCAMKL2) was 97%. The “Percent Control” value (NEK1) was 88%, the “Percent Control” value (PIK3CA(H1047L)) was 89% and the “Percent Control” value (MARK2) was 65%. For the same compound, the “Percent Control” value (ABL1-phosphorylated) was 73%, the “Percent Control” value (PLK3) was 83% and the “Percent Control” value (BRSK2) was 82%. For the same compound, the “Percent Control” value (MLK1) was 82%, the “Percent Control” value (YSK1) was 70% and the “Percent Control” value (MST1) was 90%. For the same compound, the “Percent Control” value (HIPK2) was 63%, the “Percent Control” value (PIM1) was 49% and the “Percent Control” value (GRK4) was 96%. The “Percent Control” value (PKN2) was 89%, the “Percent Control” value (EGFR(E746-A750del)) was 70% and the “Percent Control” value (SRPK3) was 100%. For the same compound, the “Percent Control” value (STK39) was 85%, the “Percent Control” value (KIT(V559D,V654A)) was 48% and the “Percent Control” value (ERK4) was 86%. The “Percent Control” value (LATS2) was 23%, the “Percent Control” value (TSSK1B) was 93% and the “Percent Control” value (NLK) was 82%. For the same compound, the “Percent Control” value [1] was 38% and the “Percent Control” value (TAOK3) was 100%.
